Measured values published in ChEMBL document CHEMBL1944583, “Synthesis and evaluation of hexahydropyrrolo[3,4-d]isoxazole-4,6-diones as anti-stress agents” (Eur J Med Chem, 2012).
Calls of active or inactive are those of the source. The calls are words filed in the database; no cut-off is given here.

Tests used:
Mus musculus [1] = assay: Antistress activity in Swiss albino mouse assessed as reversal of immobilization stress-induced decrease in rearing at 5 mg/kg, ip administered 60 mins before stress induction measured after 10 mins by hole board test; type: functional, organism-based; design: dose 5 mg/kg
Mus musculus [2] = assay: Antistress activity in Swiss albino mouse assessed as reversal of immobilization stress-induced decrease in non-social behavior at 10 mg/kg, ip administered 60 mins before stress induction measured after 10 mins by open field test; type: functional, organism-based; design: dose 10 mg/kg
Mus musculus [3] = assay: Antistress activity in Swiss albino mouse assessed as reversal of immobilization stress-induced decrease in rearing at 10 mg/kg, ip administered 60 mins before stress induction measured after 10 mins by hole board test; type: functional, organism-based; design: dose 10 mg/kg
Mus musculus [4] = assay: Antistress activity in Swiss albino mouse assessed as reversal of immobilization stress-induced decrease in rearing at 2 mg/kg, ip administered 60 mins before stress induction measured after 10 mins by hole board test; type: functional, organism-based; design: dose 2 mg/kg
Mus musculus [5] = assay: Antistress activity in Swiss albino mouse assessed as reversal of immobilization stress-induced decrease in frequency of head dip at 10 mg/kg, ip administered 60 mins before stress induction measured after 10 mins by hole board test; type: functional, organism-based; design: dose 10 mg/kg
Mus musculus [6] = assay: Antistress activity in Swiss albino mouse assessed as reversal of immobilization stress-induced decrease in frequency of rearing at 5 mg/kg, ip administered 60 mins before stress induction measured after 10 mins by open field test; type: functional, organism-based; design: dose 5 mg/kg
Mus musculus [7] = assay: Antistress activity in Swiss albino mouse assessed as reversal of immobilization stress-induced decrease in frequency of head dip at 5 mg/kg, ip administered 60 mins before stress induction measured after 10 mins by hole board test; type: functional, organism-based; design: dose 5 mg/kg
Mus musculus [8] = assay: Antistress activity in Swiss albino mouse assessed as reversal of immobilization stress-induced decrease in frequency of rearing at 10 mg/kg, ip administered 60 mins before stress induction measured after 10 mins by open field test; type: functional, organism-based; design: dose 10 mg/kg
Mus musculus [9] = assay: Antistress activity in Swiss albino mouse assessed as reversal of immobilization stress-induced decrease in locomotor activity at 5 mg/kg, ip administered 60 mins before stress induction measured every 5 mins by actophotometer test; type: functional, organism-based; design: dose 5 mg/kg
Mus musculus [10] = assay: Antistress activity in Swiss albino mouse assessed as reversal of immobilization stress-induced decrease in number of line crossing at 10 mg/kg, ip administered 60 mins before stress induction measured after 10 mins by open field test; type: functional, organism-based; design: dose 10 mg/kg
Mus musculus [11] = assay: Antistress activity in Swiss albino mouse assessed as reversal of immobilization stress-induced decrease in non-social behavior at 5 mg/kg, ip administered 60 mins before stress induction measured after 10 mins by open field test; type: functional, organism-based; design: dose 5 mg/kg
Mus musculus [12] = assay: Toxicity in Swiss albino mouse assessed as increase in frequency of head dips at 10 mg/kg, ip; type: organism-based; design: dose 10 mg/kg, route intraperitoneal; conditions: in vivo
Mus musculus [13] = assay: Antistress activity in Swiss albino mouse assessed as reversal of immobilization stress-induced decrease in frequency of head dip at 2 mg/kg, ip administered 60 mins before stress induction measured after 10 mins by hole board test; type: functional, organism-based; design: dose 2 mg/kg
[14] = Half life in Swiss albino mouse; type: ADME, organism-based; conditions: in vivo
Mus musculus [15] = assay: Antistress activity in Swiss albino mouse assessed as reversal of immobilization stress-induced decrease in locomotor activity at 10 mg/kg, ip administered 60 mins before stress induction measured every 5 mins by actophotometer test; type: functional, organism-based; design: dose 10 mg/kg
Mus musculus [16] = assay: Toxicity in Swiss albino mouse assessed as increase in frequency of rearing at 10 mg/kg, ip; type: organism-based; design: dose 10 mg/kg, route intraperitoneal; conditions: in vivo
Mus musculus [17] = assay: Antistress activity in Swiss albino mouse assessed as reversal of immobilization stress-induced decrease in number of line crossing at 5 mg/kg, ip administered 60 mins before stress induction measured after 10 mins by open field test; type: functional, organism-based; design: dose 5 mg/kg
Mus musculus [18] = assay: Antistress activity in Swiss albino mouse assessed as reversal of immobilization stress-induced decrease in number of line crossing at 2 mg/kg, ip administered 60 mins before stress induction measured after 10 mins by open field test; type: functional, organism-based; design: dose 2 mg/kg
Mus musculus [19] = assay: Antistress activity in Swiss albino mouse assessed as reversal of immobilization stress-induced decrease in frequency of rearing at 2 mg/kg, ip administered 60 mins before stress induction measured after 10 mins by open field test; type: functional, organism-based; design: dose 2 mg/kg
Mus musculus [20] = assay: Antistress activity in Swiss albino mouse assessed as reversal of immobilization stress-induced decrease in locomotor activity at 2 mg/kg, ip administered 60 mins before stress induction measured every 5 mins by actophotometer test; type: functional, organism-based; design: dose 2 mg/kg
Mus musculus [21] = assay: Antistress activity in Swiss albino mouse assessed as […] immobilization stress-induced decrease in non-social behavior at 2 mg/kg, ip administered 60 mins before stress induction measured after 10 mins by open field test; type: functional, organism-based; design: dose 2 mg/kg

SMILES | Activity (Mus musculus [2]) | Activity (Mus musculus [4]) | Activity (Mus musculus [6]) | Activity (Mus musculus [8]) | Activity (Mus musculus [9]) | Activity (Mus musculus [10]) | Activity (Mus musculus [11]) | Activity (Mus musculus [12]) | Activity (Mus musculus [13]) | Activity (Mus musculus [15]) | Activity (Mus musculus [16]) | Activity (Mus musculus [17]) | Activity (Mus musculus [18]) | Activity (Mus musculus [19]) | Activity (Mus musculus [20]) | Activity (Mus musculus [21]) | further results
O=C1[C@H]2[C@@H](c3ccccc3)N(c3ccccc3)O[C@H]2C(=O)N1c1cccc2ccccc12 (relative stereo) | Active | inactive | Active | Active | Active | Active | Active | Non-toxic | inactive | Active | Non-toxic | Active |  |  |  |  | Activity (Mus musculus [1]): Active; Activity (Mus musculus [3]): Active; Activity (Mus musculus [5]): Active; Activity (Mus musculus [7]): Active; half-life [14]: 3 h
CN1C(=O)CN=C(c2ccccc2)c2cc(Cl)ccc21 |  | Active |  |  |  |  |  |  | Active |  |  |  | Active | Active | Active | Active | 
O=C1[C@@H]2[C@@H](ON(c3ccccc3)[C@H]2c2ccccc2)C(=O)N1c1cccc2ccccc12 (relative stereo) | Active |  | inactive | Active | inactive | Active | inactive | Non-toxic |  | Active | Non-toxic | inactive | inactive | inactive | inactive | inactive | 
